Patent publication US7622251B2, “Molecular indicators of breast cancer prognosis and prediction of treatment response” (Genomic Health, Inc., priority 2004, dated 2009)

Tests used:
[1] = test system: ESR1 positive, node-negative breast cancer; test: Recurrence Score validation trial, patients treated with TAM alone in NSABP Study B-14: distant recurrence at 10 years; assay type: in vivo, human
Procedure: To test the clinical validity of this Recurrence Score test and algorithm, a blinded clinical trial with prospectively identified endpoints was carried out. This validation trial focused on patients treated with TAM alone in the randomized and registration arms of the National Surgical Adjuvant Breast and Bowel Project (NSABP) Study B-14 clinical trial population (Fisher B, Costantino J P, Redmond C K, et al: Endometrial cancer in TAM-treated breast cancer patients: Findings from the National Surgical Adjuvant Breast and Bowel Project (NSABP) B-14. J Natl Cancer Inst 86:527-537 (1994)). Genomic Health, Inc. and the NSABP carried out the 21 gene RT-PCR assay on 668 breast cancer tissue specimens derived from these patients and calculated a Recurrence Score for each patient.
Pre-specified cut-off points of Recurrence Score classified patients into one of three categories: low risk, intermediate risk, and high risk of distant disease recurrence. The proportion of the 668 patients categorized as low, intermediate, and high risk by the RT-PCR assay were 51%, 23%, and 27%, respectively. […] In a multivariate Cox model relating distant recurrence to Recurrence Score, age, and tumor size, Recurrence Score provides significant (p<0.001) predictive power that goes beyond age and tumor size. This study validated the Recurrence Score as a powerful predictor of distant recurrence in patients without involved nodes who have tumors that are ESR1 positive and treated with TAM (Paik et al. Breast Cancer Research and Treatment 82, Supplement 1: page S10, 2003 (Abstract 16).

[2] = test system: ER-positive invasive breast cancer with negative axillary lymph nodes; test: NSABP B-14 placebo and TAM arms combined: Cox interaction of treatment effect with gene expression, distant recurrence-free survival; assay type: in vivo, human; conditions: for H.R., treatment by gene expression interaction: placebo and TAM combined
Procedure: Endometrial cancer in TAM-treated breast cancer patients: Findings from the National Surgical Adjuvant Breast and Bowel Project (NSABP) B-14. J Natl Cancer Inst 86:527-537(1994). • 1.1 Fixed paraffin-embedded breast tumor tissue samples from up to 450 patients, who were treated at study entry with placebo alone in the B-14 study, were analyzed. For each evaluable patient, the expression of 16 cancer-related genes and 5 reference genes was quantitatively assessed by RT-PCR. […] Contralateral disease, other second primary cancers, and deaths prior to distant recurrence will be considered censoring events. […] Gene expression values were normalized relative to the mean of the reference genes. For each cancer-related gene, cycle threshold (CT) measurements were obtained by RT-PCR, and normalized relative to a set of five reference genes listed in Table 1. […] For the purpose of identifying treatment predictive genes in breast cancer, our primary objective was to explore the relation between gene expression and DRFS and OS in treated patients. For such analyses, data from both treated and untreated patient arms were utilized in order to discriminate treatment preditive genes from purely prognostic genes. For identifying treatment predictive genes for tamoxifen (TAM) response, both placebo and TAM-treated patients were included from NSABP Study B-14. In both studies, Cox proportional hazards models were utilized to examine the interaction between the treatment effect and gene expression. An interaction between treatment and gene expression exists if the treatment effect depends on the gene expression level; that is, if gene expression is a treatment predictive factor. Again, the likelihood ratio test was used to identify statistically significant predictive treatment genes by comparing the reduced model excluding the gene expression by treatment interaction versus the competing full model including the gene expression by treatment interaction.

CC/C(=C(\c1ccccc1)c1ccc(OCCN(C)C)cc1)c1ccccc1 [TAM, tamoxifen]
Kaplan-Meier estimate (95% confidence interval) of rate of distant recurrence at 10 years ([1]; high risk group by Recurrence Score): 30.5% (23.6%, 37.4%)
Kaplan-Meier estimate (95% confidence interval) of rate of distant recurrence at 10 years ([1]; intermediate risk group by Recurrence Score): 14.3% (8.3%, 20.3%)
Kaplan-Meier estimate (95% confidence interval) of rate of distant recurrence at 10 years ([1]; low risk group by Recurrence Score): 6.8% (4.0%, 9.6%)
decrease of H.R. for recurrence of TAM-treated patients ([2]; for every two fold increase in expression of ESR1, 95% confidence limits ~12% to ~37%): about 25%
absolute benefit of TAM treatment ([2]; patients in the lowest quartile of ESR1 expression (FIG. 3)): little benefit
absolute benefit of TAM treatment ([2]; patients in the lowest tertile of ESR1 expression (FIG. 2)): much less impact
absolute benefit of TAM treatment ([2]; two-thirds of patients who express ESR1 at the highest levels (tertiles, FIG. 2)): substantial absolute benefit
H.R., treatment by gene expression interaction ([2]; variable IntBCL2_2): 0.7697
H.R., treatment by gene expression interaction ([2]; variable IntESR1 Group): 0.7573
H.R., treatment by gene expression interaction ([2]; variable IntESR1_1): 0.7438
H.R., treatment by gene expression interaction ([2]; variable IntSCUBE2_2): 0.8058
H.R., treatment by gene expression interaction ([2]; variable IntTFRC_3): 1.944
